Experimental data published in PubChem BioAssay AID1963835 (Molecular Pharmacology Branch, DTP, NCI, 2024).

System: 699152-130-R-J1-PDC complex spheroid viability
Assay: Anticancer human tumor 699152-130-R-J1-PDC patient-derived pancreatic carcinoma cell line growth inhibition [POLQ]
Details: for IC50: curve of first compound; for viability, T/C: stronger effect = lower value
Summary of the method: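 PDC + HUVEC + MSC complex spheroids; POLQ inhibitors ± partner drugs; top conc. at/near clinical Cmax, else 10 microM (SN-38 1 microM), half-log dilutions; 37 degrees C, 5% CO2.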
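Note: spheroids exposed to agents for 7 days before viability reading.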
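Throughout, for viability, T/C: percent of DMSO vehicle control viability so 100% = vehicle and 0% = no viable signal.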

CCCS(=O)(=O)Nc1ccc(F)c(C(=O)c2c[nH]c3ncc(-c4ccc(Cl)cc4)cc23)c1F + COC1C(OC(N)=O)C(O)C(Oc2ccc3c(O)c(NC(=O)c4ccc(O)c(CC=C(C)C)c4)c(=O)oc3c2C)OC1(C)C
IC50 (second compound 0.0316 µM): > 10 µM | IC50 (second compound 0.1 µM): > 10 µM | IC50 (second compound 0.316 µM): > 10 µM | IC50 (second compound 1 µM): > 10 µM | IC50 (second compound 3.16 µM): > 10 µM | IC50 (second compound 10 µM): > 10 µM | viability, T/C (second compound 0.0316 µM, first compound 0.0316 µM): 117% | viability, T/C (second compound 0.0316 µM, first compound 0.1 µM): 105% | viability, T/C (second compound 0.0316 µM, first compound 0.316 µM): 125% | viability, T/C (second compound 0.0316 µM, first compound 1 µM): 151% | viability, T/C (second compound 0.0316 µM, first compound 3.16 µM): 172% | viability, T/C (second compound 0.0316 µM, first compound 10 µM): 64.7% | viability, T/C (second compound 0.1 µM, first compound 0.0316 µM): 115% | viability, T/C (second compound 0.1 µM, first compound 0.1 µM): 109% | viability, T/C (second compound 0.1 µM, first compound 0.316 µM): 126% | viability, T/C (second compound 0.1 µM, first compound 1 µM): 159% | viability, T/C (second compound 0.1 µM, first compound 3.16 µM): 191% | viability, T/C (second compound 0.1 µM, first compound 10 µM): 64.1% | viability, T/C (second compound 0.316 µM, first compound 0.0316 µM): 108% | viability, T/C (second compound 0.316 µM, first compound 0.1 µM): 112% | viability, T/C (second compound 0.316 µM, first compound 0.316 µM): 134% | viability, T/C (second compound 0.316 µM, first compound 1 µM): 149% | viability, T/C (second compound 0.316 µM, first compound 3.16 µM): 177% | viability, T/C (second compound 0.316 µM, first compound 10 µM): 59.9% | viability, T/C (second compound 1 µM, first compound 0.0316 µM): 105% | viability, T/C (second compound 1 µM, first compound 0.1 µM): 115% | viability, T/C (second compound 1 µM, first compound 0.316 µM): 126% | viability, T/C (second compound 1 µM, first compound 1 µM): 147% | viability, T/C (second compound 1 µM, first compound 3.16 µM): 171% | viability, T/C (second compound 1 µM, first compound 10 µM): 64.1% | viability, T/C (second compound 3.16 µM, first compound 0.0316 µM): 105% | viability, T/C (second compound 3.16 µM, first compound 0.1 µM): 121% | viability, T/C (second compound 3.16 µM, first compound 0.316 µM): 124% | viability, T/C (second compound 3.16 µM, first compound 1 µM): 145% | viability, T/C (second compound 3.16 µM, first compound 3.16 µM): 281% | viability, T/C (second compound 3.16 µM, first compound 10 µM): 68.3% | viability, T/C (second compound 10 µM, first compound 0.0316 µM): 107% | viability, T/C (second compound 10 µM, first compound 0.1 µM): 114% | viability, T/C (second compound 10 µM, first compound 0.316 µM): 123% | viability, T/C (second compound 10 µM, first compound 1 µM): 148% | viability, T/C (second compound 10 µM, first compound 3.16 µM): 175% | viability, T/C (second compound 10 µM, first compound 10 µM): 66.4%
